The EC50 is the concentration giving half of the maximal effect. Low values mean an effect from little substance, high ones a need for much substance. Usually Emax stands for the greatest response seen or fitted, relative to the assay's reference.

Active and inactive are the calls of the source. The rule behind the calls is not given here.

This is an account of results in ChEMBL document CHEMBL4371087, “Development of novel liver X receptor modulators based on a 1,2,4-triazole scaffold” (Bioorg Med Chem Lett, 2019).

What all share (type): cell-based
The target in assay [1] is T1, Oxysterols receptor LXR-beta (Homo sapiens, UniProt P55055).
T1 sequence (P55055 whole entry): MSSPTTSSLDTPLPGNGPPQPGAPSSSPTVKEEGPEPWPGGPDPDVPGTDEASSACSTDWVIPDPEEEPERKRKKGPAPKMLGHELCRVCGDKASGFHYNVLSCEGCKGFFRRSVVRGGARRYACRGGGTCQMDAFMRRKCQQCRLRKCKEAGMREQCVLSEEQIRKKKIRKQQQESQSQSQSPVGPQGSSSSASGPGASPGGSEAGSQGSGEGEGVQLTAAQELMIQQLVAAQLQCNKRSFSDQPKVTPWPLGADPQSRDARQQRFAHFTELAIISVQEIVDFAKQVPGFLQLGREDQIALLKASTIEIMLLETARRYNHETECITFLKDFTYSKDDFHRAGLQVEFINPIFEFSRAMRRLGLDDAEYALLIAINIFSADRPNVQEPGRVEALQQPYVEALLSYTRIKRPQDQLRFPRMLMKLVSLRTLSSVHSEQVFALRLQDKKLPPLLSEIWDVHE
Nature of the assay: Agonist activity at full length human LXRbeta expressed in HEK293 cells harboring LXRE-Luc promoter by luciferase reporter gene assay.

The target of assay [2] is T2, Oxysterols receptor LXR-alpha (Homo sapiens, UniProt Q13133).
T2 sequence (Q13133 whole entry): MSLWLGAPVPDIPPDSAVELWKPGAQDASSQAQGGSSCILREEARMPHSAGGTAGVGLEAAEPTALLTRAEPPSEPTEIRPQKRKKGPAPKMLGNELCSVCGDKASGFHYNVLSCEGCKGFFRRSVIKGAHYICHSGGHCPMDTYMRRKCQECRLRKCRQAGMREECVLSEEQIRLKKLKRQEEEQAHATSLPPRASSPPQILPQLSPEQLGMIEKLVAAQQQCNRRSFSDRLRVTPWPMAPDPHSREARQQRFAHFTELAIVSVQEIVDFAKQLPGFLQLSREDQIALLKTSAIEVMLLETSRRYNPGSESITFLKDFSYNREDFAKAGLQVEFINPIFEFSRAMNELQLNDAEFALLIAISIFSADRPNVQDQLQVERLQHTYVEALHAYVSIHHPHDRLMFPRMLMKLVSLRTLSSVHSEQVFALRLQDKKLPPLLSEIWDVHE
Nature of the assay: Agonist activity at full length human LXRalpha expressed in HEK293 cells harboring LXRE-Luc promoter by luciferase reporter gene assay. (In a reporter assay the amount or activity of a reporter protein is the signal.)

The species named for assay [3] is Homo sapiens. Put plainly: Selectivity ratio of EC50 for full length human LXRalpha expressed in HEK293 cells to EC50 for full length human LXRbeta expressed in HEK293 cells.
Assay [4] addresses T3, Oxysterols receptor LXR-alpha (Homo sapiens) (UniProt Q13133).
T3 sequence (whole entry): T2 sequence (Q13133 whole entry)
Nature of the assay: Agonist activity at full length human LXRalpha expressed in HEK293 cells harboring LXRE-Luc promoter at 10 uM by luciferase reporter gene assay relative to T0901317.

Assay [5] deals with T4, Oxysterols receptor LXR-beta (Homo sapiens) (UniProt P55055).
T4 sequence (whole entry): T1 sequence (P55055 whole entry)
Put plainly: Agonist activity at full length human LXRbeta expressed in HEK293 cells harboring LXRE-Luc promoter at 10 uM by luciferase reporter gene assay relative to T0901317.

In the case of `c1ccc(-c2n[nH]c(-c3ccccc3)n2)cc1`, the concentration giving a half-maximal response (EC50) in assay [1] came out at 1010 nM; in assay [2], 142 nM.
With `CC(=O)n1nc(-c2ccccc2)nc1-c1ccccc1`, the figures for the concentration for a half-maximal effect (EC50) in assay [1] and in assay [2] were 232 nM and 396 nM, respectively.
On to `Clc1ccc(-c2n[nH]c(-c3ccccc3)n2)cc1`, for which the half-maximal effective concentration (EC50) in assay [1] was determined as 245 nM; in assay [2] it was 309 nM. Moreover, the Ratio EC50 in assay [3] was 1.26. Besides, the maximum response (Emax) in assay [4] was determined as 51%; in assay [5], 60%.
For `Cn1nc(-c2ccccc2)nc1-c1ccccc1`, in that order: 2640 nM, 2470 nM, 0.94, 64% and 71%.
For `CC(=O)n1nc(Cc2ccccc2)nc1-c1ccccc1`, the EC50 in assay [1] amounted to 1420 nM; in assay [2] it was 701 nM. Moreover, the Ratio EC50 in assay [3] was 0.49. Moreover, the maximal effect (Emax) is 50% in assay [4] and 68% in assay [5].
For `Brc1ccc(-c2nc(-c3ccccc3)n(Cc3ccccc3)n2)cc1`, in that order: 712 nM, 5030 nM, 7.06, 78% and 69%.
Take `CCn1nc(-c2ccccc2)nc1-c1ccccc1`: the Emax result in assay [4] and in assay [5] was “inactive” in each case.
Take `c1ccc(-c2n[nH]c(-c3cccnc3)n2)cc1`: the Emax entry in assay [4] and in assay [5] was “inactive” in each case.
As to `Clc1ccccc1-c1n[nH]c(-c2ccccc2)n1`, the figures for the EC50 in assay [1] and in assay [2] were 640 nM and 526 nM, respectively.
With `CC(=O)n1nc(-c2ccc(C)cc2)nc1-c1ccccc1`, the EC50 in assay [1] came to 351 nM; in assay [2] it was 228 nM. Further, the Ratio EC50 in assay [3] stood at 0.65. In addition, the Emax in assay [4] is 53%; in assay [5], 62%.
Take `COc1cccc(-c2nc(-c3ccccc3)n(C(C)=O)n2)c1`: the EC50 in assay [1] is 109 nM; in assay [2], 115 nM. Further, the Ratio EC50 in assay [3] came to 1.06. In addition, the Emax in assay [4] was 62%; in assay [5], 78%.
Turning to `Cc1ccc(-c2n[nH]c(-c3ccccc3)n2)cc1`, the 50% effective concentration (EC50) in assay [1] came to 85 nM; in assay [2], 77 nM. Also, in assay [3], the Ratio EC50 was found to be 0.91. Besides, the maximum response (Emax) in assay [4] came out at 62%; in assay [5] it was 73%.
With `Cc1ccc(S(=O)(=O)n2nc(-c3ccccc3)nc2-c2ccccc2)cc1`, the values for the EC50 in assay [1] and in assay [2] were 259 nM and 1700 nM, respectively. In addition, the Ratio EC50 in assay [3] amounted to 6.58. The Emax in assay [4] is 75%; in assay [5], 81%.
For `Brc1ccc(-c2n[nH]c(-c3ccccc3)n2)cc1`, the figures for the EC50 in assay [1] and in assay [2] were 68 nM and 164 nM, respectively. In addition, the Ratio EC50 in assay [3] came out at 2.41. Also, the Emax is 55% in assay [4] and 62% in assay [5].
The molecule `CCCCn1nc(-c2ccccc2)nc1-c1ccccc1` yielded an Emax in assay [4] of 65%. The Emax result in assay [5] is “inactive”. In addition, in assay [2], the concentration giving a half-maximal response (EC50) was found to be 2470 nM.
For `COc1cccc(-c2nc(-c3ccccc3)n(S(=O)(=O)c3ccc(C)cc3)n2)c1`, the Emax result in assay [4] and in assay [5] was “inactive” in each case.
Consider `COc1cccc(-c2nc(-c3ccccc3)n(Cc3ccccc3)n2)c1`, for which the EC50 in assay [1] was 2360 nM; in assay [2] it was 903 nM. In addition, the Ratio EC50 in assay [3] is 0.38. The maximal effect (Emax) in assay [4] turned out to be 62%; in assay [5], 69%.
Turning to `Brc1ccccc1-c1n[nH]c(-c2ccccc2)n1`, the results for the EC50 in assay [1] and in assay [2] were 493 nM and 390 nM, respectively. In addition, in assay [3], the Ratio EC50 amounted to 0.79. Further, the maximal effect (Emax) in assay [4] amounted to 52%; in assay [5], 67%.
For `Clc1ccccc1-c1n[nH]c(Cc2ccccc2)n1`, in that order: 966 nM, 570 nM, 0.59, 46% and 61%.
In assay [4], `c1ccc(Cn2nc(-c3ccccc3)nc2-c2ccccc2)cc1` showed a maximal response (Emax) of 58%. The Emax result in assay [5] was “inactive”. The same molecule returned an EC50 in assay [2] of 2180 nM.
For `CC(=O)n1nc(-c2ccc(Br)cc2)nc1-c1ccccc1`, the 50% effective concentration (EC50) in assay [1] was found to be 231 nM; in assay [2] it was 113 nM.
As to `COc1cccc(-c2n[nH]c(-c3ccccc3)n2)c1`, the concentration giving a half-maximal response (EC50) in assay [1] is 68 nM; in assay [2], 108 nM. For the same molecule, in assay [3], the Ratio EC50 turned out to be 1.59. Further, the maximal effect (Emax) came out at 60% in assay [4] and 72% in assay [5].
Take `Clc1ccc(-c2n[nH]c(Cc3ccccc3)n2)cc1`: the midpoint of the response in assay [1], the EC50, lay at 2570 nM. Further, the Emax result in assay [4] was “inactive”. Moreover, the Emax in assay [5] was 73%.
For `CCCCn1nc(-c2ccc(Cl)cc2)nc1-c1ccccc1`, the Emax entry in assay [4] and in assay [5] was “inactive” in each case.
As for `CCn1nc(-c2ccc(Br)cc2)nc1-c1ccccc1`, the figures for the EC50 in assay [1] and in assay [2] were 5650 nM and 2240 nM, respectively. In addition, the Ratio EC50 in assay [3] came to 0.4. Also, the Emax in assay [4] came out at 45%; in assay [5], 71%.
Consider `Cn1nc(-c2ccc(Cl)cc2)nc1-c1ccccc1`, for which the concentration for a half-maximal effect (EC50) in assay [1] amounted to 1990 nM; in assay [2] it was 1190 nM. The Ratio EC50 in assay [3] was 0.6. Moreover, the Emax amounted to 77% in assay [4] and 83% in assay [5].
For `Clc1ccc(-c2nc(-c3ccccc3)n(Cc3ccccc3)n2)cc1`, the results for the EC50 in assay [1] and in assay [2] were 6710 nM and 2130 nM, respectively. The Ratio EC50 in assay [3] amounted to 0.32. For the same molecule, the values for the Emax in assay [4] and in assay [5] were 53% and 61%, respectively.
Consider `c1ccc(Cc2nc(-c3ccccc3)n[nH]2)cc1`, for which the results for the EC50 in assay [1] and in assay [2] were 6150 nM and 2200 nM, respectively. Also, the Ratio EC50 in assay [3] was determined as 0.36.
For the molecule `CCn1nc(-c2ccc(Cl)cc2)nc1-c1ccccc1`, in assay [4], the Emax is 60%. The Emax result in assay [5] was “inactive”. The midpoint of the response in assay [2], the EC50, lay at 2290 nM.
For `c1ccc(-c2nc(-c3ccccc3)n(C3CC3)n2)cc1`, the Emax entry in assay [4] and in assay [5] was “inactive” throughout.
